Test results as given in patent publication US9775877B2, “Combinations with a backbone-cyclized peptide” (POLYPHOR AG, priority 2012, dated 2017).
Non-standard residues stand in square brackets, D forms with d. dDab = NCC[C@@H](N)C(=O)O; Orn = NCCC[C@H](N)C(=O)O; Dab = NCC[C@H](N)C(=O)O

System: Pseudomonas aeruginosa clinical isolate PAX11045
Test: Efficacy in murine pneumonia model, compound 1 in combination with tigecycline (Example 1)
Format: in vivo
Experimental: Colony counts in lung were determined at 20 hours post treatment.
Fresh overnight colonies of PAX11045 from a 5% Horse Blood Agar plate were suspended in 0.9% sterile saline to approximately 10^8 CFU/ml and further diluted to approximately […]. Female mice (DBA/2, […], 18-22 g, Chales River) were anesthetized with 0.08 ml of Zoletil and inoculated via the nose with a pipette with 0.1 ml of the bacteria suspension containing approximately 10^6 CFU. 4 hours after inoculation, the mice were treated orally with 45 μl neurophen (20 mg ibuprofen/ml corresponding to approximately 30 mg/kg) as pain relief.
[…] As positive control Ciprofloxacin was used in the same manner with a fixed dose of 20 mg/kg.
Colony counts were determined post inoculation at 4 hours (untreated mice) and 24 hours (treated and vehicle-only treated mice). Immediately after the mice were sacrificed, the lungs were collected and frozen at −20° C. After thawing, the organs were homogenized in 1 ml 0.9% saline. Each sample was then 10 fold diluted in saline and 20 μl spots were applied on blood agar plates. All agar plates were incubated 18-24 hours at 35° C. in ambient air.

[1] = compound 1 in presence of 12.5 mg/kg tigecycline, mice, murine lungs

| Compound | effect on bacterial loads (tigecycline 12.5 mg/kg alone, s.c. single dose 3 h post infection, lung) | Top level (compound 1 in presence of 12.5 mg/kg tigecycline (s.c., 3 h post infection), mice, murine lungs) [log10 CFU/ml] | 2 log killing dose [1] [mg/kg] | Bottom level [1] [log10 CFU/ml] | Emax [1] [log10 CFU/ml] | Static dose [1] [mg/kg] | ED50 (compound 1 in presence of a fixed dose of tigecycline (12.5 mg/kg), mice, s.c., murine lungs, colony counts 20 h post treatment) [mg/kg] |
| --- | --- | --- | --- | --- | --- | --- | --- |
| CN(C)c1cc(NC(=O)CNC(C)(C)C)c(O)c2c1C[C@H]1C[C@H]3[C@H](N(C)C)C(O)=C(C(N)=O)C(=O)[C@@]3(O)C(O)=C1C2=O [tigecycline, reference compound] | no effect | – | – | – | – | – | – |
| cyclo(TWI[Dab][Orn][dDab][Dab]W[Dab][Dab]AS[dP]P) [compound 1] | – | 0.13 | 2.1 | −2.37 | 2.5 | 0.74 | 1.33 |
